Columns and labels:
Aβ1-40 = test: Measurement of Aβ1-40 in culture medium of 7W WT APP751 CHO cells by ELISA; type: cell-based, Chinese hamster; details: for activity at 5 µM: Cricetulus griseus, Table 1, 5 μM test compound, CHO cells stably transfected with human APP751, culture medium, ELISA, control DMSO, 0 = no detectable amount; for Aβ1-40 (% of control): CHO cells that overexpress APP751, zero = below the detection limit of the assay
Aβ1-42 = test: Measurement of Aβ1-42 in culture medium of 7W WT APP751 CHO cells by ELISA; type: cell-based, Chinese hamster; details: for activity at 5 µM: Cricetulus griseus, Table 1, 5 μM test compound, CHO cells stably transfected with human APP751, culture medium, ELISA, control DMSO, 0 = no detectable amount, read-out: Aβ1-42 (% of control); for Aβ1-42 (% of control): CHO cells that overexpress APP751, zero = below the detection limit of the assay
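Note: 5 µM test compound but RI-coded compounds at 10 µM for 24 hours.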

SMILES	activity at 5 µM (Aβ1-40) [%]	activity at 5 µM (Aβ1-42) [%]	Aβ1-40 (% of control) (Aβ1-40)	Aβ1-42 (% of control) (Aβ1-42)
CCCOC(=O)C1=C(C)NC2=C(C(=O)CCC2)C1c1ccc(C)cc1 (stereo not shown) [ST013247, propyl 2-methyl-4-(4-methylphenyl)-5-oxo-1,4,6,7,8-pentahydroquinoline-3-carboxylate]	35.5	55	–	–
COc1ccc(/C=c2\sc3n(c2=O)C(N)=C(C#N)C(c2ccc(OC)cc2OC)C=3C#N)c(OC)c1 (stereo not shown) [ST025017, 5-amino-7-(2,4-dimethoxyphenyl)-2-[(2,4-dimethoxyphenyl)methylene]-3-oxo-4,7-dihydro-1,3-thiazolidino[3,2-a]pyridine-6,8-dicarbonitrile]	–	–	64.54 % of control	72.39 % of control
CC1=C(C(=O)OC2CCCCC2)C(c2ccccc2C(F)(F)F)C2=C(CCCC2=O)N1 (stereo not shown) [ST014882, cyclohexyl 2-methyl-5-oxo-4-[2-(trifluoromethyl)phenyl]-1,4,6,7,8-pentahydroquinoline-3-carboxylate]	39.5	91.8	–	–
CC1=C(C(=O)OCC(C)C)C(c2cccc(Cl)c2)C2=C(CC(c3ccccc3)CC2=O)N1 (stereo not shown) [ST016969, 2-methylpropyl 4-(3-chlorophenyl)-2-methyl-5-oxo-7-phenyl-1,4,6,7,8-pentahydroquinoline-3-carboxylate]	30.3	60.2	–	–
COc1ccc(COC(=O)C2=C(C)NC3=C(C(=O)CCC3)C2c2cccc(F)c2)cc1 (stereo not shown) [ST016959, (4-methoxyphenyl)methyl 4-(3-fluorophenyl)-2-methyl-5-oxo-1,4,6,7,8-pentahydroquinoline-3-carboxylate]	28.8	57.2	–	–
CC1=C(C(=O)Nc2ccccc2)C(c2cccs2)C(C#N)=C(SCC(=O)NCc2ccc(Br)cc2)N1 (stereo not shown) [RI_20]	–	–	45.6 % of control	41.9 % of control
CC1=C(C(=O)OCCc2ccccc2)C(c2cc3c(cc2Br)OCO3)C2=C(CC(C)(C)CC2=O)N1 (stereo not shown) [ST014885, 2-phenylethyl 4-(6-bromo(2H-benzo[d]1,3-dioxolen-5-yl))-2,7,7-trimethyl-5-oxo-1,4,6,7,8-pentahydroquinoline-3-carboxylate]	39.5	87.5	–	–
CCOc1cc(C2C(C(=O)OCc3ccccc3)=C(C)NC3=C2C(=O)CC(c2ccccc2)C3)ccc1O (stereo not shown) [ST017228, phenylmethyl 4-(3-ethoxy-4-hydroxyphenyl)-2-methyl-5-oxo-7-phenyl-1,4,6,7,8-pentahydroquinoline-3-carboxylate]	95.6	60.2	–	–
CCOCCOC(=O)C1=C(C)NC2=C(C(=O)CCC2)C1c1cccc(O)c1 (stereo not shown) [ST013342, 2-ethoxyethyl 4-(3-hydroxyphenyl)-2-methyl-5-oxo-1,4,6,7,8-pentahydroquinoline-3-carboxylate]	69.7	55.5	–	–
COCCOC(=O)C1=C(C)NC2=C(C(=O)CC(c3ccccc3)C2)C1c1ccc([N+](=O)[O-])cc1 (stereo not shown) [ST017027, 2-methoxyethyl 2-methyl-4-(4-nitrophenyl)-5-oxo-7-phenyl-1,4,6,7,8-pentahydroquinoline-3-carboxylate]	35.1	82.1	–	–
COCCOC(=O)C1=C(C)NC2=C(C(=O)CCC2)C1c1cccc(OC)c1 (stereo not shown) [ST015219, 2-methoxyethyl 4-(3-methoxyphenyl)-2-methyl-5-oxo-1,4,6,7,8-pentahydroquinoline-3-carboxylate]	83.7	45.8	–	–
C=CCOC(=O)C1=C(C)NC2=C(C(=O)CCC2)C1c1ccc(OCCC)c(OC)c1 (stereo not shown) [ST013183, prop-2-enyl 4-(3-methoxy-4-propoxyphenyl)-2-methyl-5-oxo-1,4,6,7,8-pentahydroquinoline-3-carboxylate]	78.7	66.3	–	–
CC1=C(C(=O)Nc2ccccc2)C(c2cccs2)C(C#N)=C(SCC(=O)Nc2ccccc2C)N1 (stereo not shown) [ST050837, 2-[3-cyano-6-methyl-5-(N-phenylcarbamoyl)-4-(2-thienyl)(2-1,4-dihydropyridylthio)]-N-(2-methylphenyl)acetamide]	–	–	95.44 % of control	41.29 % of control
COC(=O)C1=C(C)N(C)C(C)=C(C(=O)OC)C1c1cccc(Oc2ccccc2)c1 [ST024552, methyl 5-(methoxycarbonyl)-1,2,6-trimethyl-4-(3-phenoxyphenyl)-1,4-dihydropyridine-3-carboxylate]	–	–	57.26 % of control	74.81 % of control
CC1=C(C(=O)OCCOc2ccccc2)C(c2coc3ccc(C)cc3c2=O)C2=C(CCCC2=O)N1 (stereo not shown) [ST052330, 2-phenoxyethyl 2-methyl-4-(6-methyl-4-oxochromen-3-yl)-5-oxo-1,4,6,7,8-pentahydroquinoline-3-carboxylate]	42.6	15.5	–	–
CCCCCCNC(=O)CSC1=C(C#N)C(c2ccccc2)C(C(=O)Nc2ccc(Cl)cc2)=C(C)N1 (stereo not shown) [RI_35]	–	–	55.4 % of control	78.6 % of control

SMILES	activity at 5 µM (Aβ1-40) [%]	activity at 5 µM (Aβ1-42) [%]	Aβ1-40 (% of control) (Aβ1-40)	Aβ1-42 (% of control) (Aβ1-42)
CCCOC(=O)C1=C(C)NC2=C(C(=O)CC(C)(C)C2)C1c1ccccc1 (stereo not shown) [ST017262, propyl 2,7,7-trimethyl-5-oxo-4-phenyl-1,4,6,7,8-pentahydroquinoline-3-carboxylate]	60.1	86	–	–
CC1(C)CC(=O)C2=C(C1)N(c1ccc(Br)cc1)C(N)=C(C#N)C2c1ccc(C(C)(C)C)s1 (stereo not shown) [ST052026, 2-amino-4-[5-(tert-butyl)(2-thienyl)]-1-(4-bromophenyl)-7,7-dimethyl-5-oxo-1,4,6,7,8-pentahydroquinoline-3-carbonitrile]	13.5	25.3	–	–
CC1(C)CC(=O)C2=C(C1)N(Cc1ccccc1)C(N)=C(C#N)C2c1ccc(Cl)cc1 (stereo not shown) [ST047623, 2-amino-4-(4-chlorophenyl)-7,7-dimethyl-5-oxo-1-benzyl-1,4,6,7,8-pentahydroquinoline-3-carbonitrile]	95.4	44.4	–	–
COc1ccc(C2C(C(=O)OCc3ccccc3)=C(C)NC3=C2C(=O)CCC3)cc1OC (stereo not shown) [ST013138, phenylmethyl 4-(3,4-dimethoxyphenyl)-2-methyl-5-oxo-1,4,6,7,8-pentahydroquinoline-3-carboxylate]	69.7	56.8	–	–
COC(=O)C1=C(C)NC2=C(C(=O)CC(c3cccs3)C2)C1c1cccc(C(F)(F)F)c1 (stereo not shown) [ST052393, methyl 2-methyl-5-oxo-7-(2-thienyl)-4-[3-(trifluoromethyl)phenyl]-1,4,6,7,8-pentahydroquinoline-3-carboxylate]	34.2	48.2	–	–
CCCCCOC(=O)C1=C(C)NC2=C(C(=O)CC(C)(C)C2)C1c1ccc2c(c1)OCO2 (stereo not shown) [ST216581, pentyl 4-(2H-benzo[3,4-d]1,3-dioxolan-5-yl)-2,7,7-trimethyl-5-oxo-1,4,6,7,8-pentahydroquinoline-3-carboxylate]	28.6	41.6	–	–
CCOCCOC(=O)C1=C(C)NC2=C(C(=O)CC(c3ccccc3)C2)C1c1ccc(Br)cc1 (stereo not shown) [ST017313, 2-ethoxyethyl 4-(4-bromophenyl)-2-methyl-5-oxo-7-phenyl-1,4,6,7,8-pentahydroquinoline-3-carboxylate]	44.2	85.4	–	–
CCOCCOC(=O)C1=C(C)NC2=C(C(=O)CCC2)C1c1coc2ccccc2c1=O (stereo not shown) [ST052370, 2-ethoxyethyl 2-methyl-5-oxo-4-(4-oxochromen-3-yl)-1,4,6,7,8-pentahydroquinoline-3-carboxylate]	68.6	69.7	–	–
CC1=C(C(=O)Nc2ccccc2)C(c2ccsc2)C(C#N)=C(SCC(=O)Nc2cccc(C)c2)N1 (stereo not shown) [RI_39]	–	–	72 % of control	72 % of control
COc1ccccc1NC(=O)C1=C(C)NC2=C(C(=O)CCC2)C1c1ccc(Cl)cc1 (stereo not shown) [ST052292, [4-(4-chlorophenyl)-2-methyl-5-oxo(3-1,4,6,7,8-pentahydroquinolyl)]-N-(2-methoxyphenyl)carboxamide]	85.8	68.2	–	–
CCCOc1ccc(C2C(C(=O)OC(C)CC)=C(C)NC3=C2C(=O)CC(c2ccc(Cl)cc2)C3)cc1 (stereo not shown) [ST017093, methylpropyl 7-(4-chlorophenyl)-2-methyl-5-oxo-4-(4-propoxyphenyl)-1,4,6,7,8-pentahydroquinoline-3-carboxylate]	46.8	95	–	–
C=CCOC(=O)C1=C(C)NC2=C(C(=O)CCC2)C1c1cccc(OC)c1 (stereo not shown) [ST013199, prop-2-enyl 4-(3-methoxyphenyl)-2-methyl-5-oxo-1,4,6,7,8-pentahydroquinoline-3-carboxylate]	68.5	86.7	–	–
CC1=C(C(=O)OC2CCCC2)C(c2ccc(C)s2)C2=C(CCCC2=O)N1 (stereo not shown) [ST052262, cyclopentyl 2-methyl-4-(5-methyl(2-thienyl))-5-oxo-1,4,6,7,8-pentahydroquinoline-3-carboxylate]	13.2	19.7	–	–
CCCCOC(=O)C1=C(C)NC2=C(C(=O)CCC2)C1c1cccc(Cl)c1 (stereo not shown) [ST013428, butyl 4-(3-chlorophenyl)-2-methyl-5-oxo-1,4,6,7,8-pentahydroquinoline-3-carboxylate]	25.1	40.9	–	–
COC(=O)C1=C(C)NC2=C(C(=O)CCC2)C1c1ccc(Cl)c([N+](=O)[O-])c1 (stereo not shown) [ST052361, methyl 4-(4-chloro-3-nitrophenyl)-2-methyl-5-oxo-1,4,6,7,8-pentahydroquinoline-3-carboxylate]	84.1	63.2	–	–
CC1=C(C(=O)OCCc2ccccc2)C(c2ccc(Cl)cc2Cl)C2=C(CCCC2=O)N1 (stereo not shown) [ST014884, 2-phenylethyl 4-(2,4-dichlorophenyl)-2-methyl-5-oxo-1,4,6,7,8-pentahydroquinoline-3-carboxylate]	62	52.8	–	–

From patent publication US20100119599A1 (ARCHER PHARMACEUTICALS, INC., priority 2006, published 2010)
